According to patent US20230330251A1, “METHODS FOR TREATING CANCERS WITH ANTIBODY DRUG CONJUGATES (ADC) THAT BIND TO 191P4D12 PROTEINS” (AGENSYS, INC., priority 2020, published 2023):

Legend:
[1] = tested on: subjects with previously treated locally advanced or metastatic urothelial cancer; experiment: EV-301: duration of response (DOR) per RECIST V1.1; type: in vivo, human
From the text: Duration of Response (DOR) is defined as the time from the date of the first response CR/PR per RECIST V1.1 (whichever is first recorded) that is subsequently confirmed as assessed by investigator to the date of radiological progression or date of death for subjects who achieved CR or PR. If a subject has not progressed or died, the subject was censored at the date of last radiological assessment or at the date of first CR/PR if no other post-baseline radiological assessment is available after the first CR/PR. The median DOR was estimated using the Kaplan-Meier method and is reported along with the corresponding 95% confidence interval by treatment arm.

[2] = biological target: T1, 191P4D12 (Homo sapiens, UniProt Q96NY8)
T1 sequence (Q96NY8 32-510): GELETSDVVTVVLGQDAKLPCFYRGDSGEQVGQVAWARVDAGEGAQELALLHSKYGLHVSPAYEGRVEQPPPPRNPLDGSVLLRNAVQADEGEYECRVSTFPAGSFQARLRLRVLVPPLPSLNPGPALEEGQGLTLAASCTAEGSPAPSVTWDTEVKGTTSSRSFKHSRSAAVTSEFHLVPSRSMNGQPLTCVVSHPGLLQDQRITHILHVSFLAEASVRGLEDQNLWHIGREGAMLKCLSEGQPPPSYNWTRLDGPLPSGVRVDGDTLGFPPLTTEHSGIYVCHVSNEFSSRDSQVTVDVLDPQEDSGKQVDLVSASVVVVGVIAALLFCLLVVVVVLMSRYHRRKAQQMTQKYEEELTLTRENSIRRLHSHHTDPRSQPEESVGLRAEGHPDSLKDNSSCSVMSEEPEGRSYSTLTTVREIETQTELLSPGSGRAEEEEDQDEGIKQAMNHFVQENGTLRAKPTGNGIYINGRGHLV
From the text: As described above and in U.S. Pat. No. 8,637,642, AGS-22M6E is an ADC derived from a murine hybridoma cell line.

[3] = tested on: metastatic urothelial cancer patients and non-metastatic urothelial cancer patients; experiment: Phase 1 study of EV, escalating dose levels 0.5-1.25 mg/kg: safety, DLT, MTD; type: in vivo, human
Experimental: EV will be administered at a dose of 1.25 mg/kg as an intravenous infusion over approximately 30 minutes on Days 1, 8, and 15 of each 28-day cycle. […] A maximum tolerated dose (MTD) was not reached in this study. At the 1 mg/kg dose level, 2 dose- limiting toxicities (DLTs) were observed: Grade 3 proctalgia (later changed to grade 2 by the investigator) thought related to radiation recall and Grade 4 hyperuricemia without clinical sequelae.
Moreover, dose reductions due to AEs were more frequent for the 1.25 mg/kg vs lower dose levels.
In the phase 1 study, rash and similar dermatologic AE's were common among patients treated with EV, and were seen more frequently at the highest dose. Although the exact etiology of dermatologic toxicities associated with EV is unclear at this time, due to the expression of nectin-4 in the skin, rash maybe an on target toxicity. The most common type of dermatological AE reported in ASG-22CE-13-2 was maculo-papular rash, rash, skin exfoliation, and skin pigmentation disorder. Most occurred early on (during cycle 1), and some were associated with pruritus. Mild rash due to EV should be treated using local supportive care as needed. Topical corticosteroids have been used along with antihistamines for pruritus as needed.

[4] = Phase 1 study of EV: pharmacokinetics; type: in vivo, human
From the text: Based on pharmacokinetic data from the phase 1 study, the half-life of EV is ˜1-2 days. […] Minimal (<50%) intra-cycle accumulation of MMAE was observed. It is anticipated that the dosing schedule in the study will maintain ADC exposures over each 28-day cycle, contributing to a favorable balance of activity and safety, as observed in the phase 1 trial.

[5] = tested on: subjects with previously treated locally advanced or metastatic urothelial cancer; experiment: EV-301: progression free survival (PFS1) per RECIST V1.1, investigator assessment; type: in vivo, human
From the text: For each subject, PFS1 is defined as the time from the date of randomization until the date of radiological disease progression (per RECIST V1.1), or until death due to any cause. If a subject has neither progressed nor died, the subject was censored at the date of last radiological assessment. Subjects who receive any further anticancer therapy for the disease before radiological progression were censored at the date of the last radiological assessment before the anticancer therapy started.
The efficacy endpoint of PFS1 was analyzed using the log-rank test stratified by ECOG PS (0 vs 1), regions of the world (Western EU, US or the rest of world) and liver metastasis (yes or no). Randomized treatment and the strata used for randomization was used for the analysis. In addition, stratified Cox proportional hazard model was used to estimate the hazard ratio and the corresponding 95% confidence interval. The median PFS1 was estimated using the Kaplan-Meier method and reported along with the corresponding 95% confidence interval by treatment arm.
The primary analysis was performed using the FAS. Additional sensitivity analyses for PFS1 was also be performed. Details are specified in the SAP.

[6] = patients with confirmed complete or partial response

**Q.** Which “median duration of response” value ([1]; patients who had a complete or partial response) does the source give for enfortumab vedotin here?
**A.** The value was 7.39 months.

**Q.** What about the “Duration of Response (DOR), Events, %” value [1, 6] of the same substance?
**A.** The value was “(53.8%)”.

**Q.** And the “Duration of Response, At 6 months” value [1, 6]?
**A.** The value was 53.8%.

**Q.** What about the “Duration of Response, At 12 months” value [1, 6] of the same substance?
**A.** Its value is 27.7%.

**Q.** What about the “Median of DOR” value [1, 6] of the same substance?
**A.** Its value is 7.39 Months.

**Q.** And the “comparability between enfortumab vedotin and AGS-22M6E” value [2]?
**A.** The value was “confirmed”.

**Q.** And the “dose-limiting toxicities (DLTs) observed” value ([3]; 1 mg/kg dose level, Grade 3 proctalgia, Grade 4 hyperuricemia)?
**A.** Its value is 2.

**Q.** What about the DLT ([3]; 1.25 mg/kg) of the same substance?
**A.** Its DLT is “No DLT was observed”.

**Q.** And the “dose reductions due to AEs” value ([3]; 1.25 mg/kg vs lower dose levels)?
**A.** The value was “more frequent”.

**Q.** And the “frequency of all TEAEs, AEs leading to withdrawal, and Grade 3-4 TEAEs” value ([3]; across dose levels)?
**A.** Its value is “comparable across all dose levels”.

**Q.** What about the “Incidence of the most frequent drug-related AEs, such as diarrhea and rash” value ([3]; by dose level, primarily Grades 1-2) of the same substance?
**A.** The value was “increased with increasing dose levels”.

**Q.** And the “maximum tolerated dose (MTD)” value ([3]; dose levels 0.5, 0.75, 1 and 1.25 mg/kg)?
**A.** Its value is “not reached”.

**Q.** And the “rash and similar dermatologic AE's” value ([3]; phase 1 study, more frequent at the highest dose)?
**A.** Its value is “common”.

**Q.** What about the “intra-cycle accumulation of ADC” value ([4]; dosing on Days 1, 8 and 15 of every 28-day cycle, any dose level) of the same substance?
**A.** The value was less than 30%.

**Q.** What about the half-life ([4]; phase 1 study) of the same substance?
**A.** The half-life was 24 to 48 h.

**Q.** What about the “Median PFS” value ([5]; All) of the same substance?
**A.** Its value is 5.55 mo.

**Q.** What about the “PFS, EV vs SC HR” value ([5]; All) of the same substance?
**A.** Its value is 0.615.

**Q.** And the “Progression-free survival (PFS) Events, %” value ([5]; All)?
**A.** The value was “(66.8) %”.

**Q.** What about the “Progression-free survival (PFS) Events, n/N” value ([5]; All) of the same substance?
**A.** Its value is 201/301.

**Q.** And the “Median PFS” value ([5]; FAS, investigator assessment)?
**A.** Its value is 5.55 Months.

**Q.** What about the “PFS Events, %” value ([5]; FAS, investigator assessment) of the same substance?
**A.** The value was “(66.8%)”.

**Q.** What about the “reduction in risk of disease progression or death” value ([5]; PADCEV vs chemotherapy) of the same substance?
**A.** The value was 39%.
